Values after ≈ are worked out from the molar mass of the structure shown. Like-named read-outs stand apart in the source and are kept apart here.
What was measured:
[1] = system: FIPV 3CL^pro; settings: cited from earlier work
[2] = in vitro; settings: cat
[3] = system: FIPV; experiment: Post-viral entry assay, FIPV-infected cells by IPMA; settings: for selectivity ratio at 24 h: cat
[4] = system: Herpes simplex virus type 1; settings: in vitro; cited from earlier work
[5] = system: CRFK cells; settings: cat, 24 h
[6] = system: Coxsackievirus B3; design: method as in PMID 24963331; settings: cited from earlier work
[7] = system: Coxsackievirus B3; design: method as in PMID 24963331; settings: in vitro; cited from earlier work
[8] = system: Influenza A virus; settings: in vitro; cited from earlier work
[9] = system: SARS-CoV-2; settings: in vitro, cited from earlier work
[10] = system: Marek’s disease virus; design: method as in PMID 33008383; settings: at 20 µg/mL; cited from earlier work
[11] = system: African swine fever virus; settings: in vitro, at 10 µg/mL; cited from earlier work
[12] = system: CRFK cells; experiment: Cell cytotoxicity and cell viability (MTS assay); settings: 24 h
[13] = system: SARS-CoV-2 3CL^pro; design: method as in PMID 32963564; settings: in vitro; cited from earlier work
[14] = system: Hepatitis B virus; settings: in vitro; cited from earlier work
[15] = system: Zika virus; design: method as in PMID 27344138; settings: in vitro; cited from earlier work
[16] = system: FIPV; experiment: Pre-compound assay; assay type: cell-based, feline infectious peritonitis virus; settings: cells pretreated 2 h, then FIPV 2 h, 24-HPI, crystal violet and IPMA
[17] = system: FIPV; experiment: Attachment assay; assay type: cell-based, feline infectious peritonitis virus; settings: co-adsorbed at 4°C for 1 h, 24-HPI
Procedure: (§1) Crandell–Rees feline kidney cells were seeded into a 96-well plate at 1.8 × 10^4 cells/well and cultured in MEM containing 7% FBS. Pre-compound, attachment, penetration, post-viral entry, and virucidal assays were performed based on each step of viral infection. […] For the antiviral activity assay, FIPV was used at 50 TCID50/well in all experiments. Crandell–Rees feline kidney cells were inoculated with FIPV and treated with 0.1% DMSO as vehicle control. GC376 (TargetMol®, Wellesley Hills, MA, USA) was used as the FIPV-specific drug control. Three experiments were performed in duplicate wells for each compound.
To determine whether the compounds could interfere with virus binding to the host cells, CRFK cells in a 96-well plate were prechilled at 4°C for 1 h, and cotreated with the FIPV inoculum and the diluted compounds or controls at 4°C for 1 h to allow virus binding, but not entry to the host cells.
For initial screening, FIPV infection was determined using crystal violet staining for all antiviral assays. Briefly, the supernatants were removed from the compound-treated and FIPV-infected CRFK and control cells, and the cells were fixed with cold methanol at room temperature (25°C) for 30 min. […] Five to ten images of positive FIPV-infected cells were recorded at a magnification of 100× using a phase-contrast inverted microscope (Olympus IX73). […]

[18] = system: FIPV; experiment: Penetration assay; assay type: cell-based, feline infectious peritonitis virus; settings: FIPV bound at 4°C 1 h, compound added at 37°C, 24 h
[19] = system: Enterovirus A71; design: method as in PMID 19537794; settings: in vitro, at 10 µM; cited from earlier work
[20] = system: Human immunodeficiency virus reverse transcriptase; design: method as in PMID 21730371; settings: in vitro; cited from earlier work
[21] = system: FIPV; experiment: Cotreatment (virucidal) assay, IPMA; assay type: cell-based, feline infectious peritonitis virus; settings: Alphacoronavirus 1, FIPV and compound coincubated with cells at 37°C for 2 h, 24 h
[22] = system: FMDV 3C^pro; settings: cited from earlier work
[23] = system: Foot-and-mouth disease virus; settings: virus and compound cotreated before incubating with cells; read-out: EC50 (virucidal, cotreatment); cited from earlier work
[24] = system: FIPV; experiment: Time-of-addition (ToA) assay, RT-qPCR; assay type: cell-based, feline infectious peritonitis virus
[25] = system: Foot-and-mouth disease virus; settings: in vitro, post-viral entry; cited from earlier work
[26] = system: FIPV; experiment: Post-viral entry assay, viral load by RT-qPCR; assay type: cell-based, feline infectious peritonitis virus; settings: Alphacoronavirus 1, read-out: inhibition of viral copy numbers
Procedure: as §1
To determine whether the compounds could inhibit viral replication and translation in the host cells after infection, CRFK cells were inoculated with FIPV at 37°C for 2 h for viral adsorption.
Intracellular and extracellular FIPV from infected CRFK cells was determined using RT-qPCR, as described. […] A standard curve of viral copy numbers was generated from the plasmid containing the FIPV 3′UTR sequence by 10-fold serially diluting the plasmid from […] plasmid molecules/μL and using it for viral load quantification. Quantitative polymerase chain reaction was performed from two biological replicates and three independent experiments were performed.

[27] = system: FIPV; experiment: Virucidal effect at different time points, TCID50 titration; assay type: cell-based, feline infectious peritonitis virus; settings: 75 μM, direct incubation with FIPV at 37°C, compared with untreated control
Procedure: Feline infectious peritonitis virus inoculum at 50 TCID50/mL was directly incubated at the maximum concentrations of the compounds that were non-cytotoxic at 37°C in a 1.5 mL microcentrifuge tube for 0, 15, 30, 60, and 120 min. After the indicated incubation, the mixtures of virus and compounds were immediately subjected to viral titration according to Reed and Muench’s method. Viral titers in compound-treated wells were compared with the untreated control.

[28] = system: SARS-CoV-2 RdRp; settings: in vitro; cited from earlier work
[29] = system: SARS-CoV 3a channel protein; settings: in vitro; cited from earlier work
[30] = post-viral entry, FIPV 50 TCID50/well in CRFK cells, 24-HPI, IPMA

COc1cc(O)c2c(=O)cc(-c3ccc(O)c(O)c3)oc2c1 [7-methylluteolin]
IC50 [1]: 28.5 ± 4.2 µM

O=c1cc(-c2ccc(O)c(-c3c(O)cc(O)c4c(=O)cc(-c5ccc(O)cc5)oc34)c2)oc2cc(O)cc(O)c12 [Amentoflavone]
CC50 at 24 h ([2]; CC50): 197 ± 2.29 µM | EC50 ([3]; Alphacoronavirus 1, CRFK): 144.1 ± 0.01 µM | EC90 ([3]; Alphacoronavirus 1, CRFK): 242.9 ± 2.4 µM | selectivity ratio at 24 h [3]: 1.37 | EC50 [4]: 11.1 to 28.2 µM | CC10 [5]: 155.50 ± 2.19 µM | IC50 (virucidal) [6]: 19 to 41 µg/mL | EC50 [7]: 25 µM

O=c1cc(-c2ccc(O)cc2)oc2cc(O)cc(O)c12 [Apigenin]
EC50 [8]: 5 to 20 µM | CC50 at 24 h ([2]; CC50): 22.2 µM

O=C(O)[C@H]1O[C@@H](Oc2cc3oc(-c4ccccc4)cc(=O)c3c(O)c2O)[C@H](O)[C@@H](O)[C@@H]1O [Baicalin]
CC50 at 24 h ([2]; CC50): > 200 µM | EC50 [9]: 8 to 9 µM | virucidal effect [10]: Virucidal effect

COc1ccc(-c2cc(=O)c3c(O)cc(O[C@@H]4O[C@H](CO[C@@H]5O[C@@H](C)[C@H](O)[C@@H](O)[C@H]5O)[C@@H](O)[C@H](O)[C@H]4O)cc3o2)cc1O [Diosmin]
CC50 at 24 h ([2]; CC50): > 200 µM | inhibition [11]: African swine fever virus (in vitro: 40% inhibition at 10 µg/mL)

O=C(O[C@@H]1Cc2c(O)cc(O)cc2O[C@@H]1c1cc(O)c(O)c(O)c1)c1cc(O)c(O)c(O)c1 [Epigallocatechin gallate]
Selective index CC50/EC50 ([3]; post-viral entry, CRFK cells): 3.57 | EC50 [3, 30]: 79.07 ± 0.01 µM | EC90 [3, 30]: 196.5 ± 1.96 µM | CC10 [12]: 84.98 ± 1.93 µM | CC50 [12]: 282.2 ± 0.12 µM | IC50 [13]: 7.58 µg/mL (≈ 16.5 µM) | EC50 [14]: < 10 µM | EC50 [15]: 21.4 µM

CC(C)C[C@H](NC(=O)OCc1ccccc1)C(=O)N[C@@H](C[C@@H]1CCNC1=O)C(O)S(=O)(=O)[O-].[Na+] (some centres unmarked) [GC376]
cell protection (prophylactic) effect [16]: did not possess the prophylactic and virus attachment effects | effect on FIPV binding (attachment) [17]: did not possess the prophylactic and virus attachment effects | effect on FIPV penetration [18]: inhibited FIPV replication at high concentrations of up to 50 μM

O=C(O[C@@H]1Cc2c(O)cc(O)cc2O[C@H]1c1cc(O)c(O)c(O)c1)c1cc(O)c(O)c(O)c1 [Gallocatechin Gallate]
CC50 at 24 h [2]: > 200 µM | virus reduction [19]: 56% | EC50 [20]: 3.5 µM

COc1ccc([C@@H]2CC(=O)c3c(O)cc(O[C@@H]4O[C@H](CO[C@@H]5O[C@@H](C)[C@H](O)[C@@H](O)[C@H]5O)[C@@H](O)[C@H](O)[C@H]4O)cc3O2)cc1O [Hesperidin]
viral titer reduction [8]: Influenza A virus (in vitro: viral titer reduction at 3 log10 TCID50/0.1 mL)

COc1ccc(-c2cc(=O)c3c(O)cc(O)c(-c4cc(-c5cc(=O)c6c(O)cc(O)cc6o5)ccc4OC)c3o2)cc1 [Isoginkgetin]
EC50 [21]: 40.6 ± 1.5 µM | IC50 [22]: 39 µM | CC50 at 24 h [2]: 199.4 ± 0.33 µM | viability at 24 h, 75 µM [2]: ≥ 90% | EC50 ([3]; Alphacoronavirus 1, CRFK): 4.77 ± 0.09 µM | EC90 ([3]; Alphacoronavirus 1, CRFK): 28.8 ± 1.46 µM | selectivity ratio at 24 h ([3]; Selective index CC50/EC50, post-viral entry, CRFK cells): 41.8 | CC10 [12]: 77.43 ± 2.52 µM | EC50 [23]: 2.01 ± 0.07 µM | time of addition of maximal efficiency ([24]; 28.82 μM, harvested at 10-HPI, RT-qPCR): 2–4 HPI | effect on FIPV ([24]; added at 0-HPI, 28.82 μM, RT-qPCR at 10-HPI): major inhibitory effect | time of addition at which FIPV replication is inhibited ([24]; compound at EC90, harvested at 10-HPI, RT-qPCR): 0–6 HPI | EC50 [25]: 1.93 ± 0.21 µM | inhibition at 10 µM [26]: > 90% | EC50 ([9]; infected Vero cells): 22.8 µM | decrease of viral titer ([27]; 60 min): 2 log10 TCID50/mL | decrease of viral titer ([27]; 120 min): 1.89 log10 TCID50/mL

O=c1c(-c2ccc(O)cc2)coc2c([C@@H]3O[C@H](CO)[C@@H](O)[C@H](O)[C@H]3O)c(O)ccc12 [Puerarin]
EC50 [8]: 52.1 µM | CC50 at 24 h ([2]; CC50): 195 µM

O=c1c(O)c(-c2ccc(O)c(O)c2)oc2cc(O)cc(O)c12 [Quercetin]
CC50 at 24 h [2]: > 200 µM | IC50 [28]: 6.9 µM

C[C@@H]1O[C@@H](OC[C@H]2O[C@@H](Oc3c(-c4ccc(O)c(O)c4)oc4cc(O)cc(O)c4c3=O)[C@H](O)[C@@H](O)[C@@H]2O)[C@H](O)[C@H](O)[C@H]1O [Rutin]
CC50 at 24 h ([2]; CC50): > 200 µM

O=C(/C=C/c1ccc(O)cc1)OC[C@H]1O[C@@H](Oc2c(-c3ccc(O)cc3)oc3cc(O)cc(O)c3c2=O)[C@H](O)[C@@H](O)[C@@H]1O [Tiliroside]
CC50 at 24 h [2]: 65.2 µM | IC50 [29]: 20 µM

Epicatechin-3-O-gallate
EC50 [4]: 4 µM

— article PMC10082729, “First study on in vitro antiviral and virucidal effects of flavonoids against feline infectious peritonitis virus at the early stage of infection” (Veterinary World, 2023)
